Experimental data reported in PubChem BioAssay AID504864 (NMMLSC, 2011).
The source made the active and inactive calls.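 Rule for the calls: active = normalized viability below 40% relative to DMSO and staurosporine controls, called cytotoxic; inactive = the rest.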

Each compound was assayed on ConA-stimulated mouse T cells viability, FDA flow cytometry, 24 h (assay: viability of concanavalin A-activated mouse T cells – cell-based, concanavalin A stimulation, cytotoxicity control for T cell immune modulator project (AID 504864)). Conditions: at 20 µM; active compounds read low.

Row | Structure (SMILES) | viability
1 | Cc1ccc(O)c(CCc2ccccc2)n1 | 96.7% (inactive)
2 | Cc1ccc(N2CC(C(=O)NC3=NCCS3)CC2=O)cc1 (stereo not drawn) | 93.6% (inactive)
3 | Cc1ccc(S(=O)(=O)N2CCN(S(=O)(=O)N(C)C)CC2)c(C)c1 | 84.8% (inactive)
4 | Cc1ccc(NC(=O)COC(=O)CCc2c[nH]c3ccccc23)c(C)c1 | 97.2% (inactive)
5 | Cc1ncc([N+](=O)[O-])n1Cc1cccc(F)c1 | 116% (inactive)
6 | CN1CCN(S(=O)(=O)c2ccc(C(=O)Nc3ccccc3)cc2)CC1 | 93.5% (inactive)
7 | CCOC(=O)c1ccc(NC(=O)CN2C(=O)NC3(CCCCCCC3)C2=O)cc1 | 91.1% (inactive)
8 | COc1ccccc1NS(=O)(=O)c1cc(NC(=O)CNC(=O)c2cc(C)cc(C)c2)ccc1C | 111% (inactive)
9 | COc1ccc([N+](=O)[O-])cc1NC(=O)c1ccc(N(Cc2ccccc2C)S(C)(=O)=O)cc1 | 90.9% (inactive)
10 | COc1cccc(NC(=O)Nc2ccc3nc(C)c(C)nc3c2)c1 | 100% (inactive)
11 | CCOC(=O)c1ccc(S(=O)(=O)N2CCN(C3CCCC3)CC2)cc1 | 90.7% (inactive)
12 | CCOc1ccc(CCNC(=O)CCS(=O)(=O)c2ccc(C)cc2)cc1OCC | 85.5% (inactive)
13 | CCN(CC)C(=O)N1CCN(S(=O)(=O)c2ccc(C)cc2)CC1 | 105% (inactive)
14 | O=C(c1ccc(N2C(=O)C3CC=C(Cl)CC3C2=O)cc1)N1CCCCC1 (stereo not drawn) | 6.85%
15 | CCOC(=O)c1c(C=O)c2ccccc2n1CC | 91.6% (inactive)
16 | CCN(CC)CCNC(=O)CCCNC(=O)Cn1cnc2sc(C)c(C)c2c1=O | 98.7% (inactive)
17 | CC(C)(C)NC(=O)COc1ccc(CNCc2cccnc2)cc1 | 91.1% (inactive)
18 | COc1ccc(Nc2ccccc2N)cc1 | 21.9%
19 | CCCCOc1ccc(C(=O)NCC(=O)N2CCN(C(=O)c3ccco3)CC2)cc1 | 85.5% (inactive)
20 | COc1ccccc1CNC(=O)COc1ccc(C)cc1 | 98.7% (inactive)
21 | CCOC(=O)C1CCCN(S(=O)(=O)c2ccc(F)c(C(=O)Nc3ccc(F)c(F)c3)c2)C1 (stereo not drawn) | 74.5% (inactive)
22 | CC1CCCCC1NC(=O)COC(=O)c1ccc2ncsc2c1 (stereo not drawn) | 90.9% (inactive)
23 | CN(C)S(=O)(=O)c1ccc(C(=O)NCCc2ccco2)cc1 | 91.8% (inactive)
24 | Cc1cccc(NC(=O)C2CCN(S(=O)(=O)c3c(C)[nH]c(=O)[nH]c3=O)CC2)c1 | 96% (inactive)
25 | COCc1c(C(=O)Nc2cccc(S(=O)(=O)N3CCCCC3)c2)oc2ccccc12 | 58.7% (inactive)
26 | O=C(NCCC1=CCCCC1)C(=O)NCC(c1ccco1)N1CCN(c2ccccc2F)CC1 (stereo not drawn) | 73.6% (inactive)

Row | Structure (SMILES) | viability
27 | COC(=O)c1ccccc1NC(=O)C1CCN(C(=O)c2cc(OC)cc(OC)c2)CC1 | 103% (inactive)
28 | COc1ccc(N2CC(C(=O)NC(C)C(=O)NCc3ccccc3OC)CC2=O)cc1 (stereo not drawn) | 88.2% (inactive)
29 | O=C(NCCN1CCN(c2ccccc2)CC1)c1cccc(Br)c1 | 86.2% (inactive)
30 | O=C(Cn1cc(C(F)(F)F)cc(Cl)c1=O)NCCc1ccc(Cl)cc1Cl | 102% (inactive)
31 | CC(Sc1nc2ccccc2[nH]1)C(=O)NC1CCCCC1C (stereo not drawn) | 101% (inactive)
32 | O=C(NCC1CCCCC1)c1ccc(Cl)c(S(=O)(=O)N2CCOCC2)c1 | 78.3% (inactive)
33 | Cc1ccc(Cn2c([N+](=O)[O-])cnc2C)cc1 | 110% (inactive)
34 | CN1CCN(S(=O)(=O)c2cccc(C(=O)Nc3cc(C(F)(F)F)ccc3N3CCCCC3)c2)CC1 | 56.9% (inactive)
35 | CCOc1ccc(-c2nc(N)ncc2-c2ccccc2)c(O)c1 | 83.1% (inactive)
36 | Cc1cc(C)n(C(=O)c2sc3cc(F)ccc3c2Cl)n1 | 87.8% (inactive)
37 | O=C1CC(c2nc3ccccc3[nH]2)CN1Cc1ccccc1 (stereo not drawn) | 110% (inactive)
38 | c1ccc(COc2ccc(OCCN3CCCCC3)cc2)cc1 | 112% (inactive)
39 | Cn1c(CNC(=O)CNC(=O)c2ccc(F)cc2)cc(=O)n(C)c1=O | 96.3% (inactive)
40 | O=C(CCC(=O)N1CCOCC1)NCc1cccc(C(F)(F)F)c1 | 98% (inactive)
41 | COc1ccc(C(O)c2coc3ccc(O)c(CN(C)C)c23)cc1 (stereo not drawn) | 88% (inactive)
42 | CN(CC(=O)Nc1cc(S(=O)(=O)N2CCCC2)ccc1Cl)Cc1ccc2c(c1)OCO2 | 78.3% (inactive)
43 | Cc1ccccc1C(=O)N1CCC(C(=O)Nc2ccc(C)c(S(=O)(=O)N3CCCCC3)c2)CC1 | 82.2% (inactive)
44 | COc1ccc(/C=C2\SC(=S)N(CCC(=O)N3CCOCC3)C2=O)cc1 | 78.4% (inactive)
45 | Cc1cc(Cl)c(OCCCSc2nc(C)cc(=O)[nH]2)c(Br)c1 | 103% (inactive)
46 | CCOC(=O)N1CCN(C(=O)c2ccc(CS(=O)Cc3ccc(C)cc3)o2)CC1 (stereo not drawn) | 98.2% (inactive)
47 | COc1ccc(NC(=O)CC2C(=O)N(Cc3ccccc3)C(=S)N2CCN2CCOCC2)cc1 (stereo not drawn) | 100% (inactive)
48 | CCC(C(=O)Nc1ccccc1)c1ccccc1 (stereo not drawn) | 104% (inactive)
49 | CC(=O)Nc1ccc(S(=O)(=O)NC2CCSc3ccccc32)cc1 (stereo not drawn) | 98.5% (inactive)
50 | COc1ccc(C2=Nc3cc(C)ccc3OC2)cc1 | 94.5% (inactive)
51 | CCOCC(=O)Nc1ccc(S(=O)(=O)N2CCC(c3nc4ccccc4[nH]3)CC2)cc1 | 94% (inactive)
52 | CCN(CC)S(=O)(=O)c1ccc(Cl)c(NC(=O)COC(=O)C2CCCCC2)c1 | 106% (inactive)

Row | Structure (SMILES) | viability
53 | CN(C)S(=O)(=O)c1cccc(-n2sc3ccccc3c2=O)c1 | 12.1%
54 | CCCc1nnc(NC(=O)c2ccc(S(=O)(=O)N(C)c3ccccc3OC)cc2)s1 | 89.7% (inactive)
55 | NC(=O)C1CCN(c2nc(-c3cc4ccccc4o3)cs2)CC1 | 88.8% (inactive)
56 | O=C(NCc1cccnc1)C(=O)NCC(c1ccco1)N1CCN(c2ccccc2)CC1 (stereo not drawn) | 101% (inactive)
57 | CCC1(C)NC(=O)N(CC(=O)N2N=C(c3ccccc3)CC2c2ccc(OC)cc2)C1=O (stereo not drawn) | 93.6% (inactive)
58 | Cc1ccc(C(=O)NCCCN2CCOCC2)c(C)c1 | 96.3% (inactive)
59 | O=C(O)C1CCC(Cn2c(SCc3cc(=O)n4cc(Cl)ccc4n3)nc3ccsc3c2=O)CC1 (stereo not drawn) | 71.6% (inactive)
60 | CC(=O)c1ccc(-c2csc(N3CCC(C(N)=O)CC3)n2)cc1 | 91.6% (inactive)
61 | Cc1cc(=O)oc2c3c(cc(OCC(=O)NCc4ccncc4)c12)OC(C)(C)CC3 | 106% (inactive)
62 | CCCNC(=O)c1nc2ncc(Br)cn2n1 | 101% (inactive)
63 | Cc1ccc(OCCOC(=O)c2cc(S(=O)(=O)N3CCCCC3)ccc2N2CCOCC2)cc1 | 48.6% (inactive)
64 | COc1ccc(S(=O)(=O)N2CCCCC2)cc1NC(=O)c1cnc(C)cn1 | 102% (inactive)
65 | O=C(NNS(=O)(=O)c1ccc2ccccc2c1)c1cccs1 | 100% (inactive)
66 | O=C(OCCOc1cccc(Cl)c1)c1ccc(F)c(S(=O)(=O)N2CCOCC2)c1 | 85% (inactive)
67 | COc1ccc(NC(=O)CSCC(=O)Nc2cccc(S(=O)(=O)N3CCCCCC3)c2)cc1 | 86.6% (inactive)
68 | CCCCn1nc(C(=O)N2CCN(S(=O)(=O)c3ccccc3)CC2)c2ccccc2c1=O | 98.2% (inactive)
69 | Cc1ccc(S(=O)(=O)N2CCN(C(=O)CNC(=O)c3ccc(Cl)cc3)CC2)cc1 | 33.2%
70 | Cc1sc2ncnc(NCC(C)(C)N3CCOCC3)c2c1C | 101% (inactive)
71 | O=C(CC1=NCCNC(c2ccccc2)C1)c1ccccc1O (stereo not drawn) | 75% (inactive)
72 | Cc1ccccc1C(=O)NCC(=O)N1CCN(C/C=C/c2ccccc2)CC1 | 100% (inactive)
73 | COc1ccc(S(=O)(=O)N2CCCC2C(=O)Nc2ccc(C(C)=O)cc2)cc1 (stereo not drawn) | 94.9% (inactive)
74 | CCOC(=O)c1c(N2C(=O)CC(Sc3ccccc3C(=O)O)C2=O)sc2c1CCCC2 (stereo not drawn) | 94.2% (inactive)
75 | O=C(COC(=O)C12CC3CC(CC(Br)(C3)C1)C2)Nc1cccc(S(=O)(=O)N2CCOCC2)c1 | 96.9% (inactive)
76 | O=C(CS(=O)(=O)Cc1ccccc1)N1CCc2ccccc21 | 106% (inactive)
77 | COCCCN1CCc2[nH]c(=S)[nH]c(=O)c2C1 | 95.4% (inactive)
78 | COc1ccc(CNC(=O)c2cccnc2SC)cc1OC | 75.5% (inactive)
